{
  "source": "patent US11426402B2",
  "about": "“IRE1 activating compounds for use in therapy” (The Scripps Research Institute, priority 2019, dated 2022)",
  "key": {"[1]": {"assay": "Toxicity, body weight and food intake in DIO mice", "type": "in vivo", "experimental": "(§1) FIGS. 7A-7D. RT-PCR of Xbp1s and the IRE1/XBP1s target gene Erdj4 from adipose tissue post single IP dose of 474 (FIG. 7A). Liver RNAseq profiles of ATF6, IRE1 and PERK target genes expressed as log 2 fold change of chronic 474 treatment compared to vehicle (FIG. 7B). Body weight (FIG. 7C) and food intake (FIG. 70) over 6 weeks of dosing.\n(§2) To test the efficacy of pharmacologic IRE1 activation in mitigating T2D, we chronically administered 474 by once-daily IP injections at 50 mg/kg for a period of 6 weeks to Diet-Induced Obese (DIO) mice, a model of T2D."}, "APP": {"system": "APP", "assay": "[35S] metabolic labeling of APP in 7PA2 CHO cells", "type": "cell-based", "experimental": "FIGS. 5A-5D. […] Cells were treated for 18 hours, media was then replaced and conditioned in the presence of treatments for 24 hours before harvesting for ELISA assay. Error bars represent SEM for n=3 replicates. Statistics calculated from one-tailed Student's t-test. *p<0.05, **p<0.01, ***p<0.001 (FIG. 5A). Quantification of media and lysate immunoblots from 474 treatment (10 μM) of APP. Error bars represent Standard Deviation for n=3 replicates. Statistics calculated from one-tailed Student's t-test. *p<0.05, **p<0.01 ***p<0.001 (FIG. 5B). […] Statistics calculated from one-tailed Student's t-test. *p<0.05, **p<0.01, ***p<0.001 (FIG. 5C). […] Statistics calculated from one-tailed Student's t-test. *p<0.05, **p<0.01, ***p<0.001 (FIG. 5D).\n[^35S] metabolic labeling experiments were performed as previously described^8. […] Band intensities were quantified by densitometry in ImageQuant. Fraction secreted was calculated using the equation: fraction secreted=[extracellular [^35S]-APP signal at t/(extracellular [^35S]-APP signal at t=0+intracellular[^35S]-APP signal at t=0)]. Fraction remaining was calculated using the equation: [(extracellular [^35S]-APP signal at t+intracellular [^35S]-APP signal at t)/(extracellular [^35S]-APP signal at t=0+intracellular [^35S]-APP signal at t=0)]."}, "SHSY5Y cells": {"system": "SHSY5Y cells", "assay": "TMRE staining of mitochondrial membrane potential in SHSY5Y cells", "type": "cell-based", "conditions": "10 μM, 72 hours", "experimental": "FIGS. 6A-6C. Histograms showing TMRE staining of SH-SY5Y cells transiently expressing empty vector (Mock) or Swedish mutant APP in the presence or absence of 474 (10 μM) for 72 hours (FIG. 6A). Quantification of TMRE staining in (A). Error bars represent SEM for n=3 replicates. Statistics calculated from one-tailed Student's t-test. *p<0.05, **p<0.01, ***p<0.001 (FIG. 613). Graph showing relative luminescence from CellTiterGlo assay of SH-SY5Y cells transiently expressing empty vector or Swedish mutant APP cultured in galactose media for 72 hours in the presence or absence of IRE1 activator 474 (10 μM). Error bars represent SEM for n=3 replicates. Statistics calculated from one-tailed Student's t-test. *p<0.05, **p<0.01, ***p<0.001 (FIG. 6C).\nCells were treated as indicated then incubated with TMRE dye (200 nM) for 30 mins at 37° C. Samples were collected by trypsinization. Trypsin was neutralized by washing into cell culture media and then samples were washed twice in DPBS. […] Fluorescence intensity of TMRE was recorded on the PE channel of a Novocyte Flow Cytometer (ACEA Biosciences, Inc.). Data are presented as mean of the fluorescence intensity from 3 experiments. For each experiment, 10,000 cells per condition in triplicates were recorded.\nNext, mitochondrial membrane potential was monitored in SHSY5Y cells overexpressing APP^SW and that had been treated with 474. […]"}, "PERK target genes": {"system": "PERK target genes", "assay": "Liver RNA sequencing of DIO mice, PERK targets", "type": "in vivo, mouse", "conditions": "once-daily IP 50 mg/kg, 6 weeks", "experimental": "as §1, §2"}, "pancreatic islets": {"system": "pancreatic islets", "assay": "Glucose stimulated insulin secretion in islets isolated from treated mice", "type": "in vivo, mouse", "conditions": "relative to vehicle-treated controls", "excerpt": "(§3) FIGS. 8A-8E. Oral glucose tolerance test in DIO mice treated with either Vehicle or 474 for 3 weeks (n=8) (FIG. 8A). Serum glucose and insulin levels post 4 weeks of dosing with 474 or vehicle (FIG. 8B). Glucose stimulated insulin secretion in islets isolated from 474 or vehicle treated mice. (FIG. 8C). Hepatic triglyceride content (FIG. 8D) and gene expression profiles of gluconeogenic genes (FIG. 8E) at 6 weeks post dosing.\n(§4) This effect can be rationalized, at least in part, by enhanced pancreatic f-cell function in 474-treated […], as shown by our studies in isolated pancreatic islets from vehicle- and 474-treated mice. […] Given the well-documented link between IRE1 and hepatic metabolism in T2D^55, we also examined markers of liver function after 474 treatment. We found reduced liver triglyceride accumulation in 474-treated mice relative to controls (FIG. 80)."}, "liver": {"system": "liver", "assay": "Hepatic triglyceride content and gluconeogenic gene expression in DIO mice", "type": "in vivo, mouse", "conditions": "6 weeks post dosing", "excerpt": "as §3, §4"}},
  "data": [
    {"smiles": "Cc1ccc(OCCN(C)C(=O)Cn2cc(NC(=O)CCOc3ccccc3)cn2)cc1", "note": "[Compound 474]", "values": [
      {"measurement": "body weight and food intake", "setting": "[1]; 6-week dosing period", "value": "remaining similar in all groups"},
      {"measurement": "toxicity", "setting": "[1]; DIO mice, once-daily IP 50 mg/kg, 6 weeks", "value": "no evident toxicity"},
      {"measurement": "APP degradation", "setting": "APP", "value": "increased APP degradation"},
      {"measurement": "secretion of soluble APP into the media", "setting": "APP", "value": "reduced the secretion of soluble APP"},
      {"measurement": "APP SW-associated reductions in mitochondrial membrane potential", "setting": "SHSY5Y cells; SHSY5Y overexpressing APP SW", "value": "prevented"},
      {"measurement": "mitochondrial membrane potential", "setting": "SHSY5Y cells; mock-transfected cells", "value": "did not influence"},
      {"measurement": "PERK target genes in liver", "setting": "PERK target genes", "value": "no induction"},
      {"measurement": "insulin secretion from islets upon stimulation with glucose", "setting": "pancreatic islets", "value": "dramatic increase"},
      {"measurement": "expression of genes associated with glucose metabolism in liver", "setting": "liver", "value": "reductions"},
      {"measurement": "liver triglyceride accumulation", "setting": "liver; relative to controls", "value": "reduced"}
    ]}
  ]
}
